The source of these data is ChEMBL document CHEMBL1201862, “PubChem BioAssay data set” (2004).

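Assay format: 96-well plates, 48-hour exposure. GI50 = concentration required for 50% inhibition of growth.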 Activity calls are given as the source filed them. No stated cut-off is given here; in the data, active = GI50 up to about 1.1 µM and inactive = higher.

Test in all cases: NCI tumour cell line growth inhibition, 48 h
Assay [1] concerns NCI-H23.
Assay [2] deals with LOX IMVI.
Assay [3] deals with KM12.
The subject of assay [4] is HT-29.
Assay [5] deals with M19-MEL.
In assay [6] the test system is ACHN.
The subject of assay [7] is LXFL 529.
For assay [8], the system named is UO-31.
Assay [9] has as its system SK-MEL-5.
The test system of assay [10] is SW-620.
For assay [11], the system named is RPMI-8226.
For assay [12], the system named is M14.
The test system of assay [13] is HOP-62.
The test system of assay [14] is Hs-578T.
For assay [15], the system named is T47D.
In assay [16] the test system is MDA-N.
Assay [17] concerns PC-3.
Assay [18] concerns NCI/ADR-RES.
The subject of assay [19] is NCI-H522.
Assay [20] concerns HOP-92.

As to `O=C1C=C(c2[nH]c3ccccc3c2C2=CC(=O)c3ccccc3C2=O)C(=O)c2ccccc21`, the GI50 was 41.3 µM (inactive) in [1]; 22.1 µM (inactive) in assay [2]; 36.1 µM (inactive) in [3]; > 100 µM (inactive) in [4]; 17.3 µM (inactive) in [5]; 44.9 µM (inactive) in assay [6]. Besides, the GI50 in assay [7] is 37.3 µM (inactive); in assay [8], > 100 µM (inactive); in [9] it was 31.7 µM (inactive); in [10], 66.5 µM (inactive); in assay [11] it was 33 µM (inactive); in assay [12] it was 68.7 µM (inactive).

With `CCc1cccc(C)c1NC(C)=O`, the GI50 in assay [1], in assay [3], in assay [4], in assay [5], in assay [13] and in assay [6] was > 100 µM (inactive) in each case. For the same molecule, the GI50 in [7], in [8], in [9], in assay [10], in [11] and in assay [12] was > 100 µM (inactive) each time.

Turning to `OCC(O)COCn1cc(Cn2ncc3c(NCc4ccccc4)ncnc32)nn1` (stereo not given), the GI50 was > 100 µM (inactive) in [1]; 25 µM (inactive) in [14]; > 100 µM (inactive) in assay [2]; > 100 µM (inactive) in [15]; > 100 µM (inactive) in assay [16]; > 100 µM (inactive) in [3]. Further, the GI50 in assay [4], in assay [17], in assay [13], in [6], in [18] and in assay [8] was > 100 µM (inactive) throughout. Moreover, the GI50 in [9] is > 100 µM (inactive); in assay [19] it was 18.7 µM (inactive); in [10], > 100 µM (inactive); in assay [11] it was > 100 µM (inactive); in assay [12], > 100 µM (inactive); in assay [20], > 100 µM (inactive).

With `C=CCCCN1CCCCC1=S`, the GI50 in assay [1], in assay [2], in assay [3], in [4], in [5] and in [13] was > 100 µM (inactive) throughout. In addition, the GI50 in assay [6], in assay [8], in [9], in [19], in [10] and in assay [11] was > 100 µM (inactive) each time. The GI50 in [12] and in assay [20] was > 100 µM (inactive) each time.

On to `CON(C)C(=O)C1CCCO1` (stereo not given), for which the GI50 in assay [1] is 18.5 µM (inactive); in assay [14], > 100 µM (inactive); in assay [2], > 100 µM (inactive); in [15] it was > 100 µM (inactive); in [16], > 100 µM (inactive); in assay [3], > 100 µM (inactive). For the same molecule, the GI50 in assay [4], in assay [17], in assay [13], in assay [6], in [18] and in assay [8] was > 100 µM (inactive) throughout. For the same molecule, the GI50 is 67 µM (inactive) in assay [9]; > 100 µM (inactive) in assay [19]; > 100 µM (inactive) in assay [10]; 68.7 µM (inactive) in assay [11]; > 100 µM (inactive) in assay [12]; > 100 µM (inactive) in assay [20].

Take `Cc1c2oc3c(C)cnc(C(=O)NC4C(=O)NC(C(C)C)C(=O)N5CCCC5C(=O)N(C)CC(=O)N(C)C(C(C)C)C(=O)OC4C)c3nc-2c(C(=O)NC2C(=O)NC(C(C)C)C(=O)N3CCCC3C(=O)N(C)CC(=O)N(C)C(C(C)C)C(=O)OC2C)c(N)c1=O` (stereo not given): the GI50 in assay [1] was 3.24 µM (inactive); in [14], 1.88 µM (inactive); in assay [2], 0.348 µM (active); in assay [15], 1.07 µM (active); in [16], 0.979 µM (active); in assay [3], 5.94 µM (inactive). The GI50 in assay [4] is 1.29 µM (inactive); in [17], 2.67 µM (inactive); in assay [13], 3.05 µM (inactive); in assay [6], 5.48 µM (inactive); in assay [18] it was > 61 µM (inactive); in [8] it was 14.2 µM (inactive). In addition, the GI50 in assay [9] was 1.04 µM (active); in [19], 0.673 µM (active); in assay [10], 0.346 µM (active); in [11], 0.211 µM (active); in [12] it was 3.4 µM (inactive); in [20], 2.84 µM (inactive).

Turning to `Cc1cccc2c1C(=O)[C@](C)([C@]1(C)Nc3cccc(C)c3C1=O)N2`, the GI50 in [1] is 25.6 µM (inactive); in [14], 21.7 µM (inactive); in [2], 29.3 µM (inactive); in [15], 28.8 µM (inactive); in assay [16] it was 25 µM (inactive); in assay [3], 35.6 µM (inactive). The GI50 in assay [4] was 29.1 µM (inactive); in [17] it was 14.4 µM (inactive); in assay [13] it was 23.3 µM (inactive); in [6], 43.9 µM (inactive); in assay [18], 27.7 µM (inactive); in [8] it was 18.1 µM (inactive). The GI50 is 29.4 µM (inactive) in assay [9]; 28.6 µM (inactive) in [19]; 30.7 µM (inactive) in assay [10]; 10.8 µM (inactive) in [11]; 33.9 µM (inactive) in [12]; 27.3 µM (inactive) in [20].

For the molecule `CCC(=O)CC(=O)CCC(=O)Nc1cc(C)ccc1C`, the GI50 in [1], in assay [2], in assay [3], in assay [4], in assay [6] and in assay [7] was > 100 µM (inactive) in each case. The GI50 in assay [8], in [9], in [19], in assay [10], in assay [11] and in assay [12] was > 100 µM (inactive) throughout. Moreover, in assay [20], the GI50 was > 100 µM (inactive).

Take `O=C1Cc2cn[nH]c2-c2ccccc2N1`: the GI50 in assay [1] was 29.9 µM (inactive); in [14], 37.9 µM (inactive); in assay [2], 16.3 µM (inactive); in assay [15], 36 µM (inactive); in assay [16], 35.2 µM (inactive); in [3] it was 33.2 µM (inactive). The GI50 in assay [4] is 34.9 µM (inactive); in [17] it was 41.2 µM (inactive); in assay [13] it was 32.1 µM (inactive); in assay [6] it was 28.8 µM (inactive); in assay [18], 38.4 µM (inactive); in assay [8], 32.7 µM (inactive). In addition, the GI50 is 26.4 µM (inactive) in [9]; 21.4 µM (inactive) in [19]; 17.2 µM (inactive) in [10]; 17.1 µM (inactive) in assay [11]; 22.5 µM (inactive) in assay [12]; 8.45 µM (inactive) in assay [20].

Take `CC1CCc2sc3nc(S)n(C)c(=O)c3c2C1` (stereo not given): the GI50 in [1] is 35.6 µM (inactive); in [14], 78.2 µM (inactive); in [2] it was 33.7 µM (inactive); in assay [15] it was 48.5 µM (inactive); in assay [16] it was 44 µM (inactive); in [3], 42.8 µM (inactive). Also, the GI50 in [4] was 40 µM (inactive); in [17], 25.5 µM (inactive); in assay [13], 39.7 µM (inactive); in [6] it was 37.3 µM (inactive); in assay [18], 36.1 µM (inactive); in [8], 18.3 µM (inactive). Besides, the GI50 is 35.1 µM (inactive) in assay [9]; 30.1 µM (inactive) in assay [19]; 39.2 µM (inactive) in assay [10]; 36.7 µM (inactive) in [11]; 34.3 µM (inactive) in assay [12]; 17.7 µM (inactive) in assay [20].

On to `CC(C)(C)OC(=O)NCCC1SC2C=CC1C2` (stereo not given), for which the GI50 was > 100 µM (inactive) in [1]; > 100 µM (inactive) in assay [14]; > 100 µM (inactive) in assay [2]; 99.3 µM (inactive) in assay [15]; > 100 µM (inactive) in assay [16]; > 100 µM (inactive) in assay [3]. Moreover, the GI50 in assay [4], in assay [17], in [13], in assay [6], in [18] and in assay [8] was > 100 µM (inactive) throughout. Further, the GI50 in assay [9] was 83.2 µM (inactive); in assay [19] it was > 100 µM (inactive); in assay [10], > 100 µM (inactive); in [11], > 100 µM (inactive); in assay [12], > 100 µM (inactive); in assay [20] it was > 100 µM (inactive).

On to `CC1=CC(=O)C2=C(C)CCC3C(C)C(=O)OC3C12` (stereo not given), for which the GI50 in assay [1], in assay [14], in [2], in assay [15], in assay [16] and in [3] was > 100 µM (inactive) in each case. Besides, the GI50 in [4], in assay [17], in [13], in assay [6], in [18] and in assay [8] was > 100 µM (inactive) each time. Further, the GI50 in assay [9], in [19], in assay [10], in assay [11], in assay [12] and in assay [20] was > 100 µM (inactive) in each case.
